Literature values as cited in PMC8748714, “Dynamics of GLP-1R peptide agonist engagement are correlated with kinetics of G protein activation” (Nature Communications, 2022).

How the values were obtained:
GLP-1R [1] = system: GLP-1R
From the text: Despite this conservation, these peptides induce distinct signalling profiles and have different mechanisms for receptor interaction. […] While there was also conservation in the TM bundle interactions when engaged by the four peptides, differences were identified in how each peptide uses different networks to facilitate G protein coupling. This transmission of information across the TM bundle also enables G ...

GLP-1R [2] = conditions: vs full-length exendin-4

**Q.** Which “affinity on truncation of first two residues” value (GLP-1R [1]; vs full-length exendin-4) does the source give for “truncation of the first two residues of exendin-4: exendin-4 truncated by the first two residues” here?
**A.** does not significantly alter its affinity

**Q.** What about the “decrease in potency for cAMP signalling on truncation of first two residues” value (GLP-1R [2]) of the same substance?
**A.** ~ 200 fold

**Q.** Which “lower affinity than corresponding full-length peptide” value (GLP-1R [1]; exendin(9–39) vs exendin-4, GLP-1(15–36) vs GLP-1) does the source give for “exendin(9–39): N-terminally truncated exendin-4 lacking the first 8 amino acids” here?
**A.** 10–30 fold

**Q.** For “GLP-1 (Ala2Gly): GLP-1 with Ala2Gly substitution”, which “effect of residue 2 substitution on affinity” value (GLP-1R [1]; ref 31-33 (chimera ref 32)) is on record?
**A.** reduced affinity
